From US20090156477A1, “Compositions and Methods for Regulating Inflammatory Responses” (Massachusetts Institute of Technology, priority 2005, published 2009)
“Also recorded” adds a separate entry of the source.

Assays:
Format in all cases: cell-based, human
[1] = system: TCF/LEF; experiment: TCF/LEF assay (TOPFLASH luciferase) in Caco-2 cells; settings: compared to PBS and FGF1
Method: Caco-2 cells were seeded in 12 well plates such that they would reach 90% confluency in 4 days. Two days after plating, Caco-2 cells were transiently transfected with the TOPFLASH (contains 4 TCF/LEF binding elements) luciferase promoter construct (Promega, Madison, Wis.) as well as a thymidine kinase driven renilla luciferase construct (Promega, Madison, Wis.) as a transfection control vector. Each well was transfected with 1.5 μg DNA using Superfect transfection reagent (Promega, Madison, Wis.). Twenty-four hours after transfection, Caco-2 cells were treated with PBS, FGF1, FGF2 or FGF7, for 1 hour, 4 hours or 24 hours. The Caco-2 cells were processed using a dual-luciferase assay system to measure luciferase activity from both the TOPFLASH constructs and the renilla constructs. All results were standardized to the relative transfection efficiencies as observed from the renilla values.

[2] = system: Caco-2 monolayers; experiment: Monolayer flux of 3 kDa FITC-dextran, Caco-2; settings: 100 ng/ml ligand on days 10 and 12, flux measured on day 15, PBS 20.28 ± 4.72
Method: Cells were plated on transwells as described. Media from the basolateral chamber was removed every other day and replaced with new media. Resistances were followed for 10 days, and either 100 ng/ml FGF2, 100 ng/ml FGF7 or 10 μl PBS were added on days 10 and 12. On day 15, media was removed from both the apical and basolateral chambers. The basolateral chamber was filled with 1 ml HBSS. FITC conjugated to 3 kDa dextran was added to the apical chamber in a volume of 100 μl, at 1 mg/ml in HBSS. After 30, 60 and 90 minutes, 50 μl was removed from the basolateral chamber and transferred to a 96 well plate, and 50 μl HBSS was added to the basolateral chamber. Subsequently, the flux was determined by measurement of FITC-conjugated dextran that crossed the monolayer by measurement with a fluorimeter, stimulating at 480 nm and measuring emission at 530 nm.

[3] = system: occludin and ZO-1; experiment: Immunostaining for occludin and ZO-1 in T84 cells; settings: 100 ng/ml
Method: (§1) To determine occludin and ZO-1 expression patterns, cells were plated on transwells as described for TER assays. Media from the basolateral chamber was removed every other day and replaced with new media. Resistances were measured for 10 days, and either 100 ng/ml FGF2, 100 ng/ml FGF7 or 10 μl PBS were added on days 10 and 12. On day 15, media was removed from both the apical and basolateral chambers, and the apical chamber was washed twice with PBS. One ml of 1% (w/v) paraformaldehyde in cacodylate buffer was added to each well, the plates were incubated for 10 minutes at room temperature, and the wells were washed once in PBS. One ml permeabilization media, consisting of 0.2% Triton X-100 and 2% BSA in PBS, was added to each well. After a 10 minute incubation at room temperature, wells were washed three times. 20 μl primary antibodies (rabbit polyclonal anti-human or occludin rabbit polyclonal anti-human ZO-1) diluted 1:20 in 1% goat serum, 0.25% sodium azide in PBS, were added to the apical chamber of three wells per antibody per ligand, and plates were incubated for 1 hour in a humidified chamber. […] Staining was then visualized by fluorescence microscopy. […] A Nikon HB10101AF fluorescence microscope was used to capture images at room temperature using a Hitachi HVC20 camera and Scion image acquisition software.

[4] = system: phospho-β-catenin; experiment: Immunohistochemistry for phospho-β-catenin in Caco-2 cells
Method: Caco-2 cells were grown to just prior to confluency on collagen IV coated glass slides. Cells were treated with PBS, FGF1, FGF2 and FGF7, and were incubated at 37° C. in a 5% CO2 humidified incubator for 1 hour, 4 hours, 24 hours or 48 hours, as noted. Cells were washed with PBS, fixed with 3.7% formalin for 10 minutes and washed again with PBS. Cells were treated with 0.1% Triton x-100 for 5 minutes to extract lipids. Cells were washed with PBS and preincubated with PBS supplemented with 1% bovine serum albumin. Primary antibodies were added for 4 hours at room temperature, and cells were washed with PBS. […]
Cells, except those stained with phalloidin, were washed with PBS and stained with diamidino-2-phenylindole (DAPI) for 5 minutes at room temperature (Molecular Probes). […] Cells were examined by confocal microscopy (ZO-1 and phalloidin only), or by fluorescence microscopy. A Nikon HB10101AF fluorescence microscope was used and images were captured at room temperature using a Hitachi HVC20 camera and Scion image acquisition software. […]

[5] = system: E-cadherin; experiment: Immunohistochemistry for E-cadherin in Caco-2 cells; settings: for E-cadherin localization after 24 hours: vs 1 hour and vs PBS and FGF1
Method: Caco-2 cells were grown to just prior to confluency on collagen IV coated glass slides. Cells were treated with PBS, FGF1, FGF2 and FGF7, and were incubated at 37° C. in a 5% CO2 humidified incubator for 1 hour, 4 hours, 24 hours or 48 hours, as noted. Cells were washed with PBS, fixed with 3.7% formalin for 10 minutes and washed again with PBS. Cells were treated with 0.1% Triton x-100 for 5 minutes to extract lipids. Cells were washed with PBS and preincubated with PBS supplemented with 1% bovine serum albumin. Primary antibodies were added for 4 hours at room temperature, and cells were washed with PBS. Primary antibodies used were as follows: rabbit anti-human ZO-1 (1:160; Zymed Laboratories, San Francisco, Calif.); mouse anti-human syndecan-1 (1:300; Santa Cruz Biotechnology); goat anti-human Fz-1 (1:125; Santa Cruz Biotechnology); rabbit anti-human caveolin-1 (1:250; Santa Cruz Biotechnology); goat anti-human glypican-1 (1:100; Santa Cruz Biotechnology); mouse anti-human E-cadherin (1:250; Zymed Laboratories); rabbit anti-human β-catenin (1:125; Cell Signaling Technology, Beverly, Mass.); and rabbit anti-human phospho-β-catenin (Ser33/37/Thr41; 1:125; Cell Signaling Technology, Beverly, Mass.).
Cells were then treated with secondary antibodies, Texas Red-labeled phalloidin (Molecular Probes, Eugene, Oreg.) or FLAER-FL1 (1:400; Protox Biotech, Victoria, BC, Canada) as appropriate for 1 hour in the dark at room temperature. Secondary antibodies used were as follows: FITC-labeled chicken anti-rabbit (for ZO-1; 1:100; Molecular Probes, Eugene, Oreg.); Texas Red-labeled goat-anti mouse (for syndecan-1; 1:400; Molecular Probes); FITC-labeled donkey anti-mouse (for syndecan-1; 1:400; Molecular Probes, Eugene, Oreg.); FITC-labeled rabbit anti-mouse (for syndecan-1 and E-cadherin; 1:500; Molecular Probes, Eugene, Oreg.); Texas Red-labeled rabbit anti-goat (for Fz-1; 1:200; Jackson ImmunoResearch Laboratories, West Grove, Pa.); Texas Red-labeled goat anti-rabbit (for caveolin-1, β-catenin and phospho-β-catenin; 1:500; Molecular Probes); and Texas Red-labeled donkey anti-goat (for glypican-1; 1:80; Research Diagnostics, Flanders, N.J.).
Cells, except those stained with phalloidin, were washed with PBS and stained with diamidino-2-phenylindole (DAPI) for 5 minutes at room temperature (Molecular Probes). Controls of no antibody, primary antibody only, and secondary antibody only were performed. Cells were examined by confocal microscopy (ZO-1 and phalloidin only), or by fluorescence microscopy. A Nikon HB10101AF fluorescence microscope was used and images were captured at room temperature using a Hitachi HVC20 camera and Scion image acquisition software. Images were processed using Adobe Photoshop 7.0 and Adobe Illustrator 10.0.

[6] = system: occludin and ZO-1; experiment: Immunostaining for occludin and ZO-1 in Caco-2 cells; settings: 100 ng/ml
Method: as §1, with “software. […]” for “software.”

Molecule	TCF/LEF activity [1]	Flux across monolayers (3 kDa-dextran conjugated to FITC; function of emission at 530 nm over time) [2]	membrane ruffling (tight junction protein staining) [3]	phosphorylated β-catenin localization [4]	E-cadherin localization after 1 hour [5]	E-cadherin localization after 24 hours [5]	membrane ruffling (tight junction protein staining) [6]
FGF2: Recombinant human FGF2, produced as described	increased TCF/LEF activity	47.82 ± 4.64	induced ruffling of cell membranes	clustered around the nucleus	altered E-cadherin localization	more cytoplasmic localization	induced ruffling of cell membranes; also recorded: induced notable membrane ruffling
FGF7: Recombinant human FGF7 from Sigma (protein, UniProt P21781 32-194, looked up) Fibroblast growth factor 7: CNDMTPEQMATNVNCSSPERHTRSYDYMEGGDIRVRRLFCRTQWYLRIDKRGKVKGTQEMKNNYNIMEIRTVAVGIVAIKGVESEFYLAMNKEGKLYAKKECNEDCNFKELILENHYNTYASAKWTHNGGEMFVALNQKGIPVRGKKTKKEQKTAHFLPMAIT	increased TCF/LEF activity	117.14 ± 25.36	induced ruffling of cell membranes	clustered around the nucleus	altered E-cadherin localization	more cytoplasmic localization	induced ruffling of cell membranes; also recorded: induced notable membrane ruffling
